Assay results taken from ChEMBL document CHEMBL3997775, “Challenges and Opportunities in the Development of Serine Synthetic Pathway Inhibitors for Cancer Therapy” (J Med Chem, 2017).
Converted amounts (≈) assume the structure as drawn.

Tests used:
[1] = target: T1, D-3-phosphoglycerate dehydrogenase (Homo sapiens) (UniProt O43175); test: Binding affinity to human N- terminal His6-tagged PHGDH (1 to 533 residues) expressed in Escherichia coli Rosetta (DE3) assessed as change in melting temperature by SYPRO orange dye based DSF assay
T1 sequence (whole entry): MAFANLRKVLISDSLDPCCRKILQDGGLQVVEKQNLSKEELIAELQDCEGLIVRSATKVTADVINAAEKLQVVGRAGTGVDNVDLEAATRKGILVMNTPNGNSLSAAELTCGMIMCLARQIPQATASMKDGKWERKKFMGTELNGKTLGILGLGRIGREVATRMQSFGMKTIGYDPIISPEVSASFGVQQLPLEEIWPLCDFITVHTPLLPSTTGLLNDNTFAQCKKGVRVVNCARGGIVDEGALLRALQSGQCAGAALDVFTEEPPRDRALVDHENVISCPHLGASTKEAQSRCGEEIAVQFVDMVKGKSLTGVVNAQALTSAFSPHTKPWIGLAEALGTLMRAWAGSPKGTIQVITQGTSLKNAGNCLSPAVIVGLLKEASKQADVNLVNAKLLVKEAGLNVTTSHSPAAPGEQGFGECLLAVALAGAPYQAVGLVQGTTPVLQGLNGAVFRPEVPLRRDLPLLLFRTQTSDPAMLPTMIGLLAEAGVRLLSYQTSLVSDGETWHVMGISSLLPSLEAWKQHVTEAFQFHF

[2] = target: T2, D-3-phosphoglycerate dehydrogenase (Homo sapiens, UniProt O43175); test: Inhibition of full length PHGDH (unknown origin) using 3-phosphoglycerate as substrate incubated for 60 mins in presence of PSAT1, PSPH by resazurin based diaphorase coupled assay
T2 sequence (O43175 whole entry): T1 sequence (whole entry)

[3] = target: T2, D-3-phosphoglycerate dehydrogenase
Description: Inhibition of human liver N-terminal His6-tagged PHGDH expressed in Escherichia coli Rosetta (DE3)pLysS using 3 -phosphoglycerate as substarte measured at 20 mins by resazurin based diaphorase coupled assay

[4] = Solubility of the compound; type: physicochemical
[5] = Lipophilicity, logD of the compound; type: physicochemical; settings: octanol/water

Row | SMILES | IC50 [2] [µM] | other results
1 | NC(=O)c1ccc(F)c(Cl)c1 | – | ΔTm [1]: 2.3 °C
2 | O=C1COc2cc(O)ccc21 | – | ΔTm [1]: 1.7 °C
3 | O=C(Nc1ccc(S(=O)(=O)NCc2ccco2)cc1)c1cc(-c2ccccc2O)n[nH]1 | > 100 | –
4 | Cc1ccnc(NS(=O)(=O)c2ccc(NC(=O)c3cc(-c4ccccc4O)n[nH]3)cc2)n1 | < 50 | –
5 | Cc1cccc(NC(=S)N2CCN(c3cccc(C(F)(F)F)c3)CC2)c1 | – | IC50 [3]: > 57 µM
6 | O=C(Nc1ccc(S(=O)(=O)Nc2ncccn2)cc1)c1cc(-c2ccccc2O)n[nH]1 | < 50 | –
7 | O=C(Nc1ccc(S(=O)(=O)Nc2ncccn2)cc1)c1cc(-c2ccccc2)no1 | > 100 | –
8 | Cc1cc(C)nc(NC(=S)N2CCN(c3cccc(C(F)(F)F)c3)CC2)c1 | – | IC50 [3]: 6.5 µM
9 | O=C(c1cc(-c2ccccc2)n[nH]1)N1CCC2C=C(S(=O)(=O)Nc3ncccn3)C=CC21 (stereo not drawn) | > 100 | –
10 | Cc1cc(C)nc(NS(=O)(=O)c2ccc(NC(=O)c3cc(-c4ccccc4)n[nH]3)cc2)n1 | < 50 | –
11 | Cn1nc(-c2ccccc2)cc1N | – | ΔTm [1]: 2.2 °C
12 | Nc1cccc(-c2cnco2)c1 | – | ΔTm [1]: 1.4 °C
13 | O=C(COc1cc2[nH]c(C(=O)N[C@H](CO)c3ccc(C(=O)O)cc3)cc2cc1Cl)NCCO | – | solubility [4]: 973 µM (≈ 463 µg/mL); logD [5]: < -1
14 | Cc1c(-c2ccccc2)n[nH]c1C(=O)Nc1ccc(S(=O)(=O)Nc2ncccn2)cc1 | > 100 | –
15 | CN(c1ncccn1)S(=O)(=O)c1ccc(NC(=O)c2cc(-c3ccccc3O)n[nH]2)cc1 | > 100 | –
16 | O=C(Nc1ccc(S(=O)(=O)Nc2ncccn2)cc1)c1cc(-c2ccccc2F)n[nH]1 | < 50 | –

Row | SMILES | IC50 [2] [µM] | other results
17 | O=C(Nc1ccc(S(=O)(=O)Nc2ccccn2)cc1)c1cc(-c2ccccc2)n[nH]1 | 50 to 100 | –
18 | Nc1ncccc1-c1cc(C(=O)Nc2ccc(S(=O)(=O)Nc3ncccn3)cc2)[nH]n1 | > 100 | –
19 | COc1ccccc1-c1cc(C(=O)Nc2ccc(S(=O)(=O)Nc3ncccn3)cc2)[nH]n1 | < 50 | –
20 | O=C(Nc1ccc(S(=O)(=O)Nc2ncccn2)cc1)c1cc(-c2ccccc2)n[nH]1 | < 50 | –
21 | COc1ccc(NC(C)=O)cc1Cl | – | ΔTm [1]: 1.3 °C
22 | Cc1cccc2cc[nH]c12 | – | ΔTm [1]: 2.4 °C
23 | O=C(Nc1ccc(S(=O)(=O)Nc2ncccn2)cc1)c1cc(-c2ccccc2)nn1-c1ccccc1 | > 100 | –
24 | O=C(Nc1ccc(S(=O)(=O)Nc2ncccn2)cc1)c1cc(-c2ccccc2)on1 | > 100 | –
25 | NS(=O)(=O)c1ccc(NC(=O)c2cc(-c3ccccc3O)[nH]n2)cc1 | > 100 | –
26 | O=C(Nc1ccc(S(=O)(=O)Nc2ccccn2)cc1)c1cc(-c2ccccc2O)n[nH]1 | > 100 | –
27 | Cn1nc(-c2ccccc2)cc1C(=O)Nc1ccc(S(=O)(=O)Nc2ncccn2)cc1 | < 50 | –
28 | CN(c1ncccn1)S(=O)(=O)c1ccc(NC(=O)c2cc(-c3ccccc3)n[nH]2)cc1 | > 100 | –
29 | Oc1noc2ccccc12 | – | ΔTm [1]: 2.5 °C
30 | O=C(Nc1ccc(S(=O)(=O)NCCCN2CCOCC2)cc1)c1cc(-c2ccccc2O)n[nH]1 | > 100 | –
31 | O=C(Nc1ccc(S(=O)(=O)Nc2ncccn2)cc1)c1cc(-c2ccccc2C(=O)O)n[nH]1 | > 100 | –
32 | O=C(Nc1ccc(S(=O)(=O)N2CCCCC2)cc1)c1cc(-c2ccccc2O)n[nH]1 | > 100 | –
